Measurements from patent US10165777B2, “Substituted pyrazolylpyrazole derivative and use of same as herbicide” (KYOYU AGRI CO., LTD., priority 2015, dated 2019).

Tests used:
Type in all cases: in vivo
Digitaria ciliaris [1] = assay: Weed foliar treatment test (Test 4, 4.0 to 5.0 leaf stage); settings: 10 g a.i./10 a; foliar spray at 4.0 to 5.0 leaf stage of Digitaria ciliaris (plant height 10 cm to 15 cm); 20 days
Description: (§1) Field soil was filled into a 1/4500 are pot followed by seeding with Digitaria ciliaris and Galinsoga parviflora, covering with soil and cultivating in a glass greenhouse at an average atmospheric temperature of 25° C.
(§2) Wettable powders of Target Compound (I) shown in Table 1 prepared in compliance with the preparation examples were diluted with water to the prescribed amount of chemical and uniformly sprayed onto the weeds using 100 liters of sprayed water per 10 are when Digitaria ciliaris had grown to the 4.0 to 5.0 leaf stage (plant height: 10 cm to 15 cm).
(§3) After treating for 20 days in a glass greenhouse at an average atmospheric temperature of 25° C., the herbicidal efficacy thereof was investigated.
(§4) Evaluation of herbicidal efficacy was carried out in the same manner as the above-mentioned Test Example 1.

Galinsoga parviflora = assay: as above; settings: 10 g a.i./10 a; foliar spray at 4.0 to 5.0 leaf stage of Digitaria ciliaris; 20 days
Description: as §1, §2, §3, §4

Echinochloa crus-galli = assay: Paddy herbicidal activity test; settings: irrigated pot, treated at 3.5 leaf stage of Echinochloa crus-galli, 30 days
Description: (§5) 1. Paddy Herbicidal Activity Test Rice paddy soil was filled into a 1/10000 are pot followed by the addition of suitable amounts of water and chemical fertilizer, kneading, seeding with Echinochloa crus-galli, Monochoria vaginalis and Scirpus juncoides and maintaining in an irrigated state at a water depth of 3 cm. Wettable powders of Target Compound (I) shown in Table 1 prepared in compliance with the preparation examples were diluted with a suitable amount of water, rice plants in the 2.0 leaf stage were transplanted during 3.5 leaf stage of Echinochloa crus-galli, and treated by dropping in chemical in the prescribed amount per 10 are using a pipette. After treating for 30 days in a glass greenhouse at an average atmospheric temperature of 30° C., the herbicidal efficacy thereof was investigated. Evaluation of herbicidal efficacy was carried out by comparing growth inhibition rate (%) with an untreated group, while evaluation of phytotoxicity was carried out by comparing growth inhibition rate (%) with the state of a complete eradication group, and were evaluated at 11 levels indicated below.

Monochoria vaginalis = assay: Paddy herbicidal activity test; settings: irrigated pot, 30 days
Description: as §5

Scirpus juncoides = assay: Paddy herbicidal activity test; settings: irrigated pot, 30 days
Description: as §5

Oryza sativa = assay: Paddy herbicidal activity test, phytotoxicity to transplanted rice; settings: rice transplanted in 2.0 leaf stage, 30 days
Description: as §5

Amaranthus retroflexus [2] = assay: Farming soil treatment test; settings: soil surface spray prior to weed growth, 30 days
Description: (§6) Field soil was filled into a 1/6000 are pot followed by seeding with Digitaria ciliaris, Chenopodium album and Amaranthus retroflexus and covering with soil. Wettable powders of compounds of formula (I) shown in Table 1 prepared in compliance with the preparation examples were diluted with water to the prescribed amount of chemical and uniformly sprayed onto each soil surface layer using 100 liters of sprayed water per 10 are prior to weed growth following seeding. After treating for 30 days in a glass greenhouse at an average atmospheric temperature of 30° C., the herbicidal efficacy thereof was investigated. Evaluation of herbicidal efficacy was carried out in the same manner as the above-mentioned Test Example 1.

Chenopodium album [3] = assay: Farming soil treatment test; settings: soil surface spray prior to weed growth, 30 days
Description: as §6

Digitaria ciliaris [4] = assay: Farming soil treatment test; settings: soil surface spray prior to weed growth, 30 days
Description: as §6

Amaranthus retroflexus [5] = assay: Weed foliar treatment test (Test 3, 1.0 to 2.0 leaf stage); settings: foliar spray at 1.0 to 2.0 leaf stage of Digitaria ciliaris, 3 weeks
Description: (§7) Soil was filled into a 1/6000 are pot followed by seeding with Digitaria ciliaris, Chenopodium album and Amaranthus retroflexus, covering with soil, and cultivating in a glass greenhouse at an average atmospheric temperature of 25° C. Wettable powders of Target Compound (I) shown in Table 1 prepared in compliance with the preparation examples were diluted with water to the prescribed amount of chemical and uniformly sprayed onto the weeds using 150 liters of sprayed water per 10 are when Digitaria ciliaris had grown to the 1.0 to 2.0 leaf stage. After treating for 3 weeks in a glass greenhouse at an average atmospheric temperature of 25° C., the herbicidal efficacy thereof was investigated. Evaluation of herbicidal efficacy was carried out in the same manner as the above-mentioned Test Example 1.

Chenopodium album [6] = assay: as above; settings: foliar spray at 1.0 to 2.0 leaf stage of Digitaria ciliaris, 3 weeks
Description: as §7

Digitaria ciliaris [7] = assay: as above; settings: foliar spray at 1.0 to 2.0 leaf stage of Digitaria ciliaris, 3 weeks
Description: as §7

N#Cc1cnn(-c2nn3c(c2Cl)CCCC3)c1N=Cc1ccccn1 [Compound 21]
herbicidal efficacy, Digitaria ciliaris (Digitaria ciliaris [1]): 10 (100%)
herbicidal efficacy, Galinsoga parviflora (Galinsoga parviflora): 10 (100%)

N#Cc1cnn(-c2nn3c(c2Cl)CCCC3)c1N=Cc1ccsc1 [Compound 31]
herbicidal efficacy, Digitaria ciliaris (Digitaria ciliaris [1]): 10 (100%)
herbicidal efficacy, Galinsoga parviflora (Galinsoga parviflora): 10 (100%)

CC(=Nc1c(C#N)cnn1-c1nn2c(c1Cl)CCCC2)c1ccccn1 [Compound 24]
herbicidal efficacy, Digitaria ciliaris (Digitaria ciliaris [1]): 10 (100%)
herbicidal efficacy, Galinsoga parviflora (Galinsoga parviflora): 10 (100%)

N#Cc1cnn(-c2nn3c(c2Cl)CCCC3)c1N=Cc1cccnc1 [Compound 22]
herbicidal efficacy, Echinochloa crus-galli (Echinochloa crus-galli; 1 g a.i./10 a): 10 (100%)
herbicidal efficacy, Echinochloa crus-galli (Echinochloa crus-galli; 5 g a.i./10 a): 10 (100%)
herbicidal efficacy, Monochoria vaginalis (Monochoria vaginalis; 1 g a.i./10 a): 10 (100%)
herbicidal efficacy, Monochoria vaginalis (Monochoria vaginalis; 5 g a.i./10 a): 10 (100%)
herbicidal efficacy, Scirpus juncoides (Scirpus juncoides; 1 g a.i./10 a): 10 (100%)
herbicidal efficacy, Scirpus juncoides (Scirpus juncoides; 5 g a.i./10 a): 10 (100%)
phytotoxicity, Oryza sativa (Oryza sativa; 1 g a.i./10 a): 0 (0% to less than 10% (growth inhibition rate))
phytotoxicity, Oryza sativa (Oryza sativa; 5 g a.i./10 a): 1 (10% to less than 20%)
herbicidal efficacy, Amaranthus retroflexus (Amaranthus retroflexus [2]; 5 g a.i./10 a): 10 (100%)
herbicidal efficacy, Amaranthus retroflexus (Amaranthus retroflexus [2]; 10 g a.i./10 a): 10 (100%)
herbicidal efficacy, Chenopodium album (Chenopodium album [3]; 5 g a.i./10 a): 9 (90% to less than 100%)
herbicidal efficacy, Chenopodium album (Chenopodium album [3]; 10 g a.i./10 a): 10 (100%)
herbicidal efficacy, Digitaria ciliaris (Digitaria ciliaris [4]; 5 g a.i./10 a): 9 (90% to less than 100%)
herbicidal efficacy, Digitaria ciliaris (Digitaria ciliaris [4]; 10 g a.i./10 a): 9 (90% to less than 100%)
herbicidal efficacy, Digitaria ciliaris (Digitaria ciliaris [1]): 9 (90% to less than 100%)
herbicidal efficacy, Galinsoga parviflora (Galinsoga parviflora): 10 (100%)

N#Cc1cnn(-c2nn3c(c2Cl)CCCC3)c1N=Cc1ccc(Cl)cc1 [Compound 20]
herbicidal efficacy, Digitaria ciliaris (Digitaria ciliaris [1]): 10 (100%)
herbicidal efficacy, Galinsoga parviflora (Galinsoga parviflora): 10 (100%)

N#Cc1cnn(-c2nn3c(c2Cl)CCCC3)c1N=Cc1ccc(C(F)(F)F)cc1 [Compound 19]
herbicidal efficacy, Digitaria ciliaris (Digitaria ciliaris [1]): 10 (100%)
herbicidal efficacy, Galinsoga parviflora (Galinsoga parviflora): 10 (100%)

CCOC=Nc1c(C#N)cnn1-c1nn2c(c1Cl)CCCC2 [Compound 34]
herbicidal efficacy, Digitaria ciliaris (Digitaria ciliaris [1]): 9 (90% to less than 100%)
herbicidal efficacy, Galinsoga parviflora (Galinsoga parviflora): 10 (100%)

N#Cc1cnn(-c2nn3c(c2Cl)CCCC3)c1N=CC1CCCCC1 [Compound 1, 1-(3-chloro-4,5,6,7-tetrahydropyrazolo[1,5-a]pyridin-2-yl)-5-(cyclohexylmethyleneamino)pyrazole-4-carbonitrile]
herbicidal efficacy, Echinochloa crus-galli (Echinochloa crus-galli; 1 g a.i./10 a): 10 (100%)
herbicidal efficacy, Echinochloa crus-galli (Echinochloa crus-galli; 5 g a.i./10 a): 10 (100%)
herbicidal efficacy, Monochoria vaginalis (Monochoria vaginalis; 1 g a.i./10 a): 9 (90% to less than 100%)
herbicidal efficacy, Monochoria vaginalis (Monochoria vaginalis; 5 g a.i./10 a): 10 (100%)
herbicidal efficacy, Scirpus juncoides (Scirpus juncoides; 1 g a.i./10 a): 9 (90% to less than 100%)
herbicidal efficacy, Scirpus juncoides (Scirpus juncoides; 5 g a.i./10 a): 10 (100%)
phytotoxicity, Oryza sativa (Oryza sativa; 1 g a.i./10 a): 0 (0% to less than 10% (growth inhibition rate))
phytotoxicity, Oryza sativa (Oryza sativa; 5 g a.i./10 a): 0 (0% to less than 10% (growth inhibition rate))
herbicidal efficacy, Amaranthus retroflexus (Amaranthus retroflexus [2]; 5 g a.i./10 a): 10 (100%)
herbicidal efficacy, Amaranthus retroflexus (Amaranthus retroflexus [2]; 10 g a.i./10 a): 10 (100%)
herbicidal efficacy, Chenopodium album (Chenopodium album [3]; 5 g a.i./10 a): 9 (90% to less than 100%)
herbicidal efficacy, Chenopodium album (Chenopodium album [3]; 10 g a.i./10 a): 10 (100%)
herbicidal efficacy, Digitaria ciliaris (Digitaria ciliaris [4]; 5 g a.i./10 a): 9 (90% to less than 100%)
herbicidal efficacy, Digitaria ciliaris (Digitaria ciliaris [4]; 10 g a.i./10 a): 9 (90% to less than 100%)
herbicidal efficacy, Amaranthus retroflexus (Amaranthus retroflexus [5]; 5 g a.i./10 a): 10 (100%)
herbicidal efficacy, Amaranthus retroflexus (Amaranthus retroflexus [5]; 10 g a.i./10 a): 10 (100%)
herbicidal efficacy, Chenopodium album (Chenopodium album [6]; 5 g a.i./10 a): 10 (100%)
herbicidal efficacy, Chenopodium album (Chenopodium album [6]; 10 g a.i./10 a): 10 (100%)
herbicidal efficacy, Digitaria ciliaris (Digitaria ciliaris [7]; 5 g a.i./10 a): 10 (100%)
herbicidal efficacy, Digitaria ciliaris (Digitaria ciliaris [7]; 10 g a.i./10 a): 10 (100%)

CC(C)OC=Nc1c(C#N)cnn1-c1nn2c(c1Cl)CCCC2 [Compound 36]
herbicidal efficacy, Digitaria ciliaris (Digitaria ciliaris [1]): 10 (100%)
herbicidal efficacy, Galinsoga parviflora (Galinsoga parviflora): 10 (100%)

Cc1ccc(C=Nc2c(C#N)cnn2-c2nn3c(c2Cl)CCCC3)cc1 [Compound 18]
herbicidal efficacy, Digitaria ciliaris (Digitaria ciliaris [1]): 10 (100%)
herbicidal efficacy, Galinsoga parviflora (Galinsoga parviflora): 10 (100%)

CC(=Nc1c(C#N)cnn1-c1nn2c(c1Cl)CCCC2)c1cccnc1 [Compound 25]
herbicidal efficacy, Digitaria ciliaris (Digitaria ciliaris [1]): 10 (100%)
herbicidal efficacy, Galinsoga parviflora (Galinsoga parviflora): 10 (100%)

CCCCOC=Nc1c(C#N)cnn1-c1nn2c(c1Cl)CCCC2 [Compound 37]
herbicidal efficacy, Digitaria ciliaris (Digitaria ciliaris [1]): 10 (100%)
herbicidal efficacy, Galinsoga parviflora (Galinsoga parviflora): 10 (100%)

N#Cc1cnn(-c2nn3c(c2Cl)CCCC3)c1N=Cc1ccoc1 [Compound 32]
herbicidal efficacy, Digitaria ciliaris (Digitaria ciliaris [1]): 10 (100%)
herbicidal efficacy, Galinsoga parviflora (Galinsoga parviflora): 10 (100%)

N#Cc1cnn(-c2nn3c(c2Cl)CCCC3)c1N=Cc1cccc(Cl)c1 [Compound 17]
herbicidal efficacy, Digitaria ciliaris (Digitaria ciliaris [1]): 10 (100%)
herbicidal efficacy, Galinsoga parviflora (Galinsoga parviflora): 10 (100%)

CC(=Nc1c(C#N)cnn1-c1nn2c(c1Cl)CCCC2)c1cnccn1 [Compound 27]
herbicidal efficacy, Digitaria ciliaris (Digitaria ciliaris [1]): 10 (100%)
herbicidal efficacy, Galinsoga parviflora (Galinsoga parviflora): 10 (100%)

N#Cc1cnn(-c2nn3c(c2Cl)CCCC3)c1N=Cc1ccc[nH]1 [Compound 28]
herbicidal efficacy, Digitaria ciliaris (Digitaria ciliaris [1]): 10 (100%)
herbicidal efficacy, Galinsoga parviflora (Galinsoga parviflora): 10 (100%)

N#Cc1cnn(-c2nn3c(c2Cl)CCCC3)c1N=C1CCCC1 [Compound 8]
herbicidal efficacy, Digitaria ciliaris (Digitaria ciliaris [1]): 10 (100%)
herbicidal efficacy, Galinsoga parviflora (Galinsoga parviflora): 10 (100%)

N#Cc1cnn(-c2nn3c(c2Cl)CCCC3)c1N=Cc1ccccc1OC(F)F [Compound 12]
herbicidal efficacy, Digitaria ciliaris (Digitaria ciliaris [1]): 10 (100%)
herbicidal efficacy, Galinsoga parviflora (Galinsoga parviflora): 10 (100%)

CC(=Nc1c(C#N)cnn1-c1nn2c(c1Cl)CCCC2)c1ccc[nH]1 [Compound 29]
herbicidal efficacy, Amaranthus retroflexus (Amaranthus retroflexus [5]; 5 g a.i./10 a): 9 (90% to less than 100%)
herbicidal efficacy, Amaranthus retroflexus (Amaranthus retroflexus [5]; 10 g a.i./10 a): 10 (100%)
herbicidal efficacy, Chenopodium album (Chenopodium album [6]; 5 g a.i./10 a): 10 (100%)
herbicidal efficacy, Chenopodium album (Chenopodium album [6]; 10 g a.i./10 a): 10 (100%)
herbicidal efficacy, Digitaria ciliaris (Digitaria ciliaris [7]; 5 g a.i./10 a): 9 (90% to less than 100%)
herbicidal efficacy, Digitaria ciliaris (Digitaria ciliaris [7]; 10 g a.i./10 a): 10 (100%)
herbicidal efficacy, Digitaria ciliaris (Digitaria ciliaris [1]): 10 (100%)
herbicidal efficacy, Galinsoga parviflora (Galinsoga parviflora): 10 (100%)

N#Cc1cnn(-c2nn3c(c2Cl)CCCC3)c1N=Cc1ccccc1F [Compound 13]
herbicidal efficacy, Digitaria ciliaris (Digitaria ciliaris [1]): 10 (100%)
herbicidal efficacy, Galinsoga parviflora (Galinsoga parviflora): 10 (100%)
